US11981618B2, “P62 ligand compound, and composition for preventing, ameliorating or treating proteinopathies comprising the same” (AUTOTAC INC., priority 2018, dated 2024)
“Also recorded” adds a separate entry of the source.

Key:
LC3 = experiment: Autophagy activity in cultured cells by immunoblotting using LC3 as a marker; format: cell-based, human; conditions: HeLa
Description: In order to evaluate the autophagy activity efficacy by the compounds (Examples 1-19), HeLa cell line, which is a cell line derived from a cervical cancer patient, was cultured using a DMEM medium containing 10% FBS and 1% streptomycin/penicillin in an incubator with 5% carbon dioxide. As representative compounds among the present compounds, YOK-1107, YOK-4404 and YOK-1104 were selected. In order to measure autophagy activity according to the treatment with these selected representative compounds, the respective cells were dispensed into 6 well plates. Additional cultures were performed […] so that the cells were completely attached to the surface of the plate. To find the concentration at which the respective compounds could increase the phenomenon of autophagy, the test compounds were diluted at 1, 2, 5, 10 and 20 μM and treated. After treatment with the respective compounds, the cells were cultured again in a cell incubator for 24 hours, and then the cells were collected. To extract proteins from the collected cells, 100 ul of lysis buffer (20 mM Tris (pH 7.4), 150 mM NaCl, 1% Triton X-100, 2 mM NaF, 2 mM EDTA, 2 mM beta-glycerophosphate, 5 mM sodium orthovanadate, 1 mM PMSF, leupeptin, aprotinin) was injected into each sample, and cells were lysed. Based on the measured total protein concentration, a sample buffer was added to each sample and allowed to react at 100° C. for 5 minutes. 5 ul was taken from the samples after the reaction, and dispensed into each well of acrylamide gel, and then immunoblotting was performed.
In order to investigate the autophagy activity efficacy by the compounds (Examples 1-19), immunoblotting was performed in the same manner as in Experimental Example 2 using LC3 as a marker. As for the difference, in order to evaluate the treatment time required for activation and the activity retention time, as the representative compounds selected among the present compounds, 5 μM of YOK-1107, YOK-1204, YOK-1304, YOK-2204, YOK-3304, […] treated for 1, 3, 6, 12, 24, 48 hours. On the other hand, as the representative compounds selected among the compounds of the present invention, […] YOK-1107, YOK-1109, YOK-2207, YOK-2209, YT-4-1, YT-4-2, YT-6-1, YT-6-2, YT-6-8, YT-6-7, YT-9-1, YT-9-2 were treated for 24 hours.
In order to investigate the autophagy activity efficacy of control compounds, immunoblotting was performed in the same manner as in Experimental Example 2 by using LC3 as a marker. As the control compounds, compounds having the following structure were used.

p62 and LC3 = experiment: Autophagy activity in cultured cells by immunofluorescence staining and confocal microscopy (p62 and LC3 puncta); format: cell-based, human; conditions: for p62 activation/oligomerization, delivery to autophagosome and autophagy activity (p62 and LC3 puncta, co-existence): HeLa, 5 uM, 24 hours, FIGS. 6a and 6b; for p62 activation/oligomerization, delivery to autophagosome and autophagy activity (p62 and LC3 puncta), control compounds: different concentrations, FIG. 7
Description: In order to confirm the p62 protein activity and the activity level of autophagy phenomenon by the compounds (Examples 1-19), immunofluorescence staining was performed using p62 and LC3 as markers. In order to confirm the p62 activity and the activity level of autophagy phenomenon by new p62 ligands and isomers thereof in cultured cells, HeLa cell line, which is a cell line derived from cervical cancer patient, was treated with the novel p62 ligand compounds (YOK-1106, YOK-1204, YOK-1504, YOK-2204, YOK-3304, YOK-4404, YOK-1107, YOK-1109, YOK-2207, YOK-2209, YT-4-1, YT-4-2, YT-6-1, YT-9-1 and YT-9-2) and cultured. Thereafter, as markers of the autophagy phenomenon, the expression level and location of LC3 puncta and the local co-existence with p62 puncta were observed.
For immunofluorescence staining, a cover glass was placed on a 24-well plate, cells were dispensed, cultured for 24 hours, and then treated with 5 uM of the novel p62 ligands according to the present invention. For the action of the compounds, additional cultures were performed for 24 hours, and then the medium was removed. Cells were fixed using formaldehyde at room temperature. In order to prevent non-specific staining, the cells were allowed to react with a blocking solution at room temperature for 1 hour, and then treated with LC3 antibody diluted at a certain ratio using the blocking solution, and allowed to reacted at room temperature for 1 hour. The antibody-treated cells were washed three times with PBS, and goat-derived secondary antibody was diluted at a certain ratio using the blocking solution, and then allowed to react at room temperature for 30 minutes. The cells were washed again with PBS three times, and for intracellular nuclear staining, the expression level, intracellular puncta formation and intracellular coexistence level of p62 and LC3 were observed through a confocal microscopy after DAPI staining.
In order to confirm p62 protein activity and the activity level of autophagy phenomenon of control compounds (YOK-A-1104, YOK-G-1104, YTK-1005, YTK-1105-1), immunofluorescence staining was performed in the same manner as in Experimental Example 4 by using p62 and LC3 as markers. YOK-A-1104 and YOK-G-1104 are compounds having the following structures.
The compounds were treated at different concentrations, and intracellular puncta of p62 or LC3, that is, the degree to which autophagosome was formed and p62 was delivered was observed by a confocal microscopy.

p62 protein = target: T1, p62 protein (Homo sapiens, UniProt Q13501); experiment: Oligomerization activity of p62 protein in cultured cells by immunoblotting; format: cell-based; conditions: HEK293 cell lysate treated with test compounds at room temperature for 2 hours; immunoblot, FIG. 2
T1 construct: endogenous in cells; host or cells: HEK293 (cell lysate treated with compounds)
T1 sequence (Q13501 whole entry): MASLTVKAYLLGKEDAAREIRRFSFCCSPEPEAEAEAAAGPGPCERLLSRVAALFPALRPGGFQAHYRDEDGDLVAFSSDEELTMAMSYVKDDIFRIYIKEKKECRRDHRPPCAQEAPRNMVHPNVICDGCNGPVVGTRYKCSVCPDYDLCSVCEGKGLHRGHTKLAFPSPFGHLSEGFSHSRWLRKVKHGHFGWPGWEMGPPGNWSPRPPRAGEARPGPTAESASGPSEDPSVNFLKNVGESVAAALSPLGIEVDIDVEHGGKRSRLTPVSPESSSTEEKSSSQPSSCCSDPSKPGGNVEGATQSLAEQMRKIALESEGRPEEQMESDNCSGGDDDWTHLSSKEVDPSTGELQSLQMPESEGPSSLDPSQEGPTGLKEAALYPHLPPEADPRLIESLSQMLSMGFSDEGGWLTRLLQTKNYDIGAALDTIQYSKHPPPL
Source text: In order to evaluate the p62 protein oligomerization activity efficacy by the compounds (Examples 1-19), HEK293 cell line, which is human embryonic kidney-derived cell, was collected. As representative compounds among the present compounds, YOK-1104, YOK-2204, YOK-3304, YOK-1204, YOK-4404, YOK-1107, YOK-1109, YOK-2207, YOK-2209, YT-4-1, YT-4-2, YT-6-1, YT-6-2, YT-6-7, YT-6-8, YT-9-1, YT-9-2 were selected. In order to measure intracellular p62 protein activation and oligomerization according to the treatment with these selected representative compounds, the respective cells were dispensed into a pi dish. The cells were collected after further culturing for 24 hours so that the cells were completely attached to the surface of the plate. 100 ul of lysis buffer (20 mM Tris, pH 7.4), 150 mM NaCl, 1% Triton X-100, 2 mM NaF, 2 mM EDTA, 2 mM beta-glycerophosphate, 5 mM sodium orthovanadate, 1 mM PMSF, leupeptin, aprotinin) were injected into each sample and the cells were lysed. Based on the measured total protein concentration, each sample was treated with test compounds at room temperature for 2 hours, and then a sample buffer was added and allowed to react at 95° C. for 10 minutes. 25 ul was taken from the samples after the reaction, and dispensed into each well of acrylamide gel, and then immunoblotting was performed.

[1] = 5 μM, treated for 1, 3, 6, 12, 24, 48 hours, FIG. 4
[2] = treated for 24 hours (concentration not given), FIG. 4

`OCCNC[C@@H](O)COc1ccc(OCc2ccccc2)c(OCc2ccccc2)c1` [YOK-1106] was tested, and the “autophagy activity (level of LC3)” value (LC3; [1]) was “increasing the autophagy activity” and the “p62 activation/oligomerization, delivery to autophagosome and autophagy activity (p62 and LC3 puncta, co-existence)” value (p62 and LC3) was “delivering them to autophagosome and simultaneously increasing autophagy activity”.

`CC(C)NC[C@@H](O)COc1ccc(OCc2ccccc2)c(OCCc2ccccc2)c1` [YOK-1204, (R)-1-(4-(benzyloxy)-3-phenethoxyphenoxy)-3-(isopropylamino)propan-2-ol] was tested, and the “p62 protein oligomerization activity (p62 monomer, oligomers and high-molecular aggregates)” value (shortened to “p62 protein oligomerization activity”) (p62 protein) was “increasing the p62 protein oligomerization activity”, the “autophagy activity (level of LC3)” value (LC3; [1]) was “gradually increased; also recorded: increasing the autophagy activity” and the “p62 activation/oligomerization, delivery to autophagosome and autophagy activity (p62 and LC3 puncta, co-existence)” value (p62 and LC3) was “delivering them to autophagosome and simultaneously increasing autophagy activity”.

In the case of `CC(C)NC[C@@H](O)COc1ccc(OCCc2ccccc2)c(OCCc2ccccc2)c1` [YOK-2204, (R)-1-(3,4-diphenethoxyphenoxy)-3-(isopropylamino)propan-2-ol], the “p62 protein oligomerization activity” value (p62 protein) is reported as “increasing the p62 protein oligomerization activity”, the “autophagy activity (level of LC3)” value (LC3; [1]) is reported as “gradually increased; also recorded: increasing the autophagy activity” and the “p62 activation/oligomerization, delivery to autophagosome and autophagy activity (p62 and LC3 puncta, co-existence)” value (p62 and LC3) is reported as “delivering them to autophagosome and simultaneously increasing autophagy activity”.

`CC(C)NC[C@@H](O)COc1ccc(OCCCc2ccccc2)c(OCCCc2ccccc2)c1` [YOK-3304, (R)-1-(3,4-bis(3-phenylpropoxy)phenoxy)-3-(isopropylamino)propan-2-ol] was tested, and the “p62 protein oligomerization activity” value (p62 protein) was “increasing the p62 protein oligomerization activity”, the “autophagy activity (level of LC3)” value (LC3; [1]) was “gradually increased” and the “p62 activation/oligomerization, delivery to autophagosome and autophagy activity (p62 and LC3 puncta, co-existence)” value (p62 and LC3) was “delivering them to autophagosome and simultaneously increasing autophagy activity”.

`CC(C)NC[C@@H](O)COc1ccc(OCCCCc2ccccc2)c(OCCCCc2ccccc2)c1` [YOK-4404, (R)-1-(3,4-bis(4-phenylbutoxy)phenoxy)-3-(isopropylamino)propan-2-ol] was tested, and the “p62 protein oligomerization activity” value (p62 protein) was “increasing the p62 protein oligomerization activity”, the “autophagy activity (level of LC3)” value (LC3; [1]) was “increasing the autophagy activity” and the “autophagy activity (level of LC3)” value (LC3; 1, 2, 5, 10 and 20 μM, 24 hours, FIG. 3) was “increasing the autophagy activity”. The “p62 activation/oligomerization, delivery to autophagosome and autophagy activity (p62 and LC3 puncta, co-existence)” value (p62 and LC3) was “delivering them to autophagosome and simultaneously increasing autophagy activity”.

With `CCOC(=O)C(C)NC[C@@H](O)COc1ccc(OCc2ccccc2)c(OCc2ccccc2)c1` (stereo partly drawn) [YOK-A-1104, Ethyl (R)-(3-(3,4-bis(benzyloxy)phenoxy)-2-hydroxypropyl)alanineate, reference compound] the “p62 activation/oligomerization, delivery to autophagosome and autophagy activity (p62 and LC3 puncta), control compounds” value (p62 and LC3) was “delivering them to autophagosome and simultaneously increasing autophagy activity”.

With `COC(=O)CNC[C@@H](O)COc1ccc(OCc2ccccc2)c(OCc2ccccc2)c1` [YOK-G-1104, Methyl (R)-(3-(3,4-bis(benzyloxy)phenoxy)-2-hydroxypropyl)glycineate, reference compound] the “p62 activation/oligomerization, delivery to autophagosome and autophagy activity (p62 and LC3 puncta), control compounds” value (p62 and LC3) was “delivering them to autophagosome and simultaneously increasing autophagy activity”.

`OCCNC[C@@H](O)COc1cccc(OCc2ccc(F)cc2)c1` [YT-6-8, (R)-1-(3-((4-fluorobenzyl)oxy)phenoxy)-3-((2-hydroxyethyl)amino)propan-2-ol] was tested, and the “p62 protein oligomerization activity” value (p62 protein) was “increasing the p62 protein oligomerization activity” and the “autophagy activity (level of LC3)” value (LC3; [2]) was “gradually increased”.

With `N=C(N)NCCNC[C@@H](O)COc1ccc(OCc2ccc(Cl)cc2)c(OCc2ccc(Cl)cc2)c1` [YT-9-1] the “p62 protein oligomerization activity” value (p62 protein) was “increasing the p62 protein oligomerization activity” and the “autophagy activity (level of LC3)” value (LC3; [2]) was “gradually increased”.

`N=C(N)NCCNC[C@@H](O)COc1ccc(OCc2ccc(F)cc2)c(OCc2ccc(F)cc2)c1` [YT-9-2] was tested, and the “p62 protein oligomerization activity” value (p62 protein) was “increasing the p62 protein oligomerization activity” and the “autophagy activity (level of LC3)” value (LC3; [2]) was “gradually increased”.

`OCCNCc1ccc(OCc2ccccc2)c(O)c1` [YTK-1005, reference compound] was tested, and the “p62 activation/oligomerization, delivery to autophagosome and autophagy activity (p62 and LC3 puncta), control compounds” value (p62 and LC3) was “delivering them to autophagosome and simultaneously increasing autophagy activity”.

`OCCCCc1ccc(OCc2ccccc2)c(OCc2ccccc2)c1` [YTK-1105-1, 4-(3,4-bis(benzyloxy)phenyl)butan-1-ol, reference compound] was tested, and the “autophagy activity (level of LC3), control compounds” value (LC3; different concentrations and different times, FIG. 5) was “do not increase autophagy activity” and the “p62 activation/oligomerization, delivery to autophagosome and autophagy activity (p62 and LC3 puncta), control compounds” value (p62 and LC3) was “delivering them to autophagosome and simultaneously increasing autophagy activity”.
